According to patent US8546414B2, “Ion channel modulators and methods of use” (Vertex Pharmaceuticals Incorporated, priority 2004, dated 2013):

Assays:
Format in all cases: cell-based
[1] = biological target: T1, NaV1.3 (Homo sapiens, UniProt Q9NY46); test: VIPR optical membrane potential assay with electrical stimulation, NaV1.3; conditions: Table 9, NaV 1.3 receptors
T1 construct: expressed in transfected cells; host or cells: HEK293
Summary of the method: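 HEK293 cells stably expressing NaV1.3, stained with CC2-DMPE (10 μM final) then DiSBAC2(3) with ABSC1, 30 min each at RT; compounds added with oxonol. Electrical stimulation for 3 s; 460/580 nm background-subtracted emission ratio Rf/Ri, normalised to tetracaine (positive) and untreated (negative) controls.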

[2] = biological target: T2, CaV2.2 (Homo sapiens, UniProt Q00975); test: VIPR optical membrane potential assay with electrical stimulation, CaV2.2; conditions: Table 9, CaV 2.2 receptors
T2 construct: expressed in transfected cells; host or cells: HEK293
Summary of the method: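 HEK293 cells stably expressing CaV2.2 stained with CC2-DMPE/DiSBAC2(3) voltage-sensitive dyes (10 μM final CC2-DMPE, 30 min, RT), then compound added and cells electrically stimulated for 3-5 s. Read-out: background-subtracted 460/580 nm emission ratio; response R=Rf/Ri (post- vs pre-stimulus ratio); antagonism seen as reduced response.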

[3] = biological target: NaV1.8 (Homo sapiens, UniProt Q9Y5Y9); test: VIPR optical membrane potential assay, NaV1.8 (other subtypes in an analogous mode); conditions: Table 9, NaV 1.8 receptors
Summary of the method: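 Cells expressing the NaV subtype stained with coumarin and DiSBAC2(3) membrane-potential dyes, then incubated with test compound for 20-30 minutes. Depolarization evoked by sodium addback and read optically on VIPR; block measured as reduced membrane-potential response, with tetracaine as positive control.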

T2 sequence (Q00975 whole entry): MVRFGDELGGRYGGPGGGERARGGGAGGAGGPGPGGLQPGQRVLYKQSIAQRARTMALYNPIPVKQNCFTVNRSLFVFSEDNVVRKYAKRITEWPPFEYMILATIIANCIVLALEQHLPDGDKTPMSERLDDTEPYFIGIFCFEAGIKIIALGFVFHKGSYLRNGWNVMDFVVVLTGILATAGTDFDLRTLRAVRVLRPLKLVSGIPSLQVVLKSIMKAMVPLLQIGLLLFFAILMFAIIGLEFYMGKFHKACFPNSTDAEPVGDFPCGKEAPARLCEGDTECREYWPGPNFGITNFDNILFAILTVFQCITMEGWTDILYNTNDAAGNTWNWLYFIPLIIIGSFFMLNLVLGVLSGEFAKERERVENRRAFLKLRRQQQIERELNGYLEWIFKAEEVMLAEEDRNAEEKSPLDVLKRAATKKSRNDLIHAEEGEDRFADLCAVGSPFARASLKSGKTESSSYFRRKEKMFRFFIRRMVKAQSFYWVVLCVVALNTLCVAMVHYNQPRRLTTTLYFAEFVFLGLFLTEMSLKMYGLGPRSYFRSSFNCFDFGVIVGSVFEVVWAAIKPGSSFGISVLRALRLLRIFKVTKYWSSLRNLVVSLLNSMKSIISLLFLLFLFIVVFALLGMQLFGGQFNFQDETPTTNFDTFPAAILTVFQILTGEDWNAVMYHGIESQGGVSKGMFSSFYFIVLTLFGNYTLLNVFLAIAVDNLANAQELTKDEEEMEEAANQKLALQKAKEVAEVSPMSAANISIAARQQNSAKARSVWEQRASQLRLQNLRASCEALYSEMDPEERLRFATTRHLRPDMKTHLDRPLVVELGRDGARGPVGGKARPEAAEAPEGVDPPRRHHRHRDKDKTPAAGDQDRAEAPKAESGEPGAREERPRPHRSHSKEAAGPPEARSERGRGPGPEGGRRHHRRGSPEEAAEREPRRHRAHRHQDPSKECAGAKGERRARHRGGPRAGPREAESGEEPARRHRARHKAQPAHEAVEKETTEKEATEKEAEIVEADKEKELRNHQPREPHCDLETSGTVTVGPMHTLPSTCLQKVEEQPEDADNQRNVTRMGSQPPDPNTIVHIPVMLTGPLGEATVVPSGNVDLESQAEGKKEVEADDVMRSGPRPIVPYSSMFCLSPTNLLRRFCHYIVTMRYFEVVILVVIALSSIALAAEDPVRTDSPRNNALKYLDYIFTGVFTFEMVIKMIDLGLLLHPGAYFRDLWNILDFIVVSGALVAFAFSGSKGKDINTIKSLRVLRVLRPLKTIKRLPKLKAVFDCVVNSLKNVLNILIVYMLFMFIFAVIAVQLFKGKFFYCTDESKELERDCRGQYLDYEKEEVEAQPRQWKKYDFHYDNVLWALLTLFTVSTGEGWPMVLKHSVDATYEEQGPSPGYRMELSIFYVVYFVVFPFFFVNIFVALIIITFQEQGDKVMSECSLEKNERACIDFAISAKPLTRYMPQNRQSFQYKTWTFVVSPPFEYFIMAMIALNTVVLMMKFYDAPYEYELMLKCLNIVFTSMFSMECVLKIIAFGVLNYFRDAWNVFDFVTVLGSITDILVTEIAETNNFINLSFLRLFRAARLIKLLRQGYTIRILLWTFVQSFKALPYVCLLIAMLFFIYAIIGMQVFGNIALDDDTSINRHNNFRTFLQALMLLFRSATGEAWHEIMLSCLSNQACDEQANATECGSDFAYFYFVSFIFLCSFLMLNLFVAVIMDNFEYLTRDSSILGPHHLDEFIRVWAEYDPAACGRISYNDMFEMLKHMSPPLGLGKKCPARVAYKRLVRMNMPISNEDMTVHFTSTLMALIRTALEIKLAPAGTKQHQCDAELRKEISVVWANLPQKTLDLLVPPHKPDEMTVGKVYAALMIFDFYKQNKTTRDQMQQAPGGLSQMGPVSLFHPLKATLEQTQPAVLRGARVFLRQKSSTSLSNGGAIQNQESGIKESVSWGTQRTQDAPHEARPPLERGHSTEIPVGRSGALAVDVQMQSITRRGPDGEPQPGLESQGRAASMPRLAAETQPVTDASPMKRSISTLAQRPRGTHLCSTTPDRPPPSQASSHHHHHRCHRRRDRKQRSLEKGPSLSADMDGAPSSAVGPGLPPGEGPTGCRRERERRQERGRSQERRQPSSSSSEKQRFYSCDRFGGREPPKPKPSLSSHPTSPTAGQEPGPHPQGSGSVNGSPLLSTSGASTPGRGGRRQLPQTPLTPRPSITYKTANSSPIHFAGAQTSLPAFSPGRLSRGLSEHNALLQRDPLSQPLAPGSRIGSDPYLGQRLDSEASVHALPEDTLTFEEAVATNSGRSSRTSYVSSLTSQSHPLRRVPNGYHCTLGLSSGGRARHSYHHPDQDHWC
T2 sequence (P54284 whole entry partner): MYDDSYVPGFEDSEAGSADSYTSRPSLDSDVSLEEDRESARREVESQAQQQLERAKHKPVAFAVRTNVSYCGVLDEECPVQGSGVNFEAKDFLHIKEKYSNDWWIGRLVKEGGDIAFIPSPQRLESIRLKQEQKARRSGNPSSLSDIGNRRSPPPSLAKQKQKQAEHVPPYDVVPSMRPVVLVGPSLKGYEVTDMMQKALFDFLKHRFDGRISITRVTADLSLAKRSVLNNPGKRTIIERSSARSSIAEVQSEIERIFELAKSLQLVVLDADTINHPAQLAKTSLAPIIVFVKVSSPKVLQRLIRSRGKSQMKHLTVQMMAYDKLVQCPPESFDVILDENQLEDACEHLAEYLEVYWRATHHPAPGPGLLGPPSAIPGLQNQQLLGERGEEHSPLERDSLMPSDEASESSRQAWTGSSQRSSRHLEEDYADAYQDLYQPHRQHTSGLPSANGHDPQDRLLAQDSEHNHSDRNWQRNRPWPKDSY
T2 sequence (P54289 25-956 partner limits assumed): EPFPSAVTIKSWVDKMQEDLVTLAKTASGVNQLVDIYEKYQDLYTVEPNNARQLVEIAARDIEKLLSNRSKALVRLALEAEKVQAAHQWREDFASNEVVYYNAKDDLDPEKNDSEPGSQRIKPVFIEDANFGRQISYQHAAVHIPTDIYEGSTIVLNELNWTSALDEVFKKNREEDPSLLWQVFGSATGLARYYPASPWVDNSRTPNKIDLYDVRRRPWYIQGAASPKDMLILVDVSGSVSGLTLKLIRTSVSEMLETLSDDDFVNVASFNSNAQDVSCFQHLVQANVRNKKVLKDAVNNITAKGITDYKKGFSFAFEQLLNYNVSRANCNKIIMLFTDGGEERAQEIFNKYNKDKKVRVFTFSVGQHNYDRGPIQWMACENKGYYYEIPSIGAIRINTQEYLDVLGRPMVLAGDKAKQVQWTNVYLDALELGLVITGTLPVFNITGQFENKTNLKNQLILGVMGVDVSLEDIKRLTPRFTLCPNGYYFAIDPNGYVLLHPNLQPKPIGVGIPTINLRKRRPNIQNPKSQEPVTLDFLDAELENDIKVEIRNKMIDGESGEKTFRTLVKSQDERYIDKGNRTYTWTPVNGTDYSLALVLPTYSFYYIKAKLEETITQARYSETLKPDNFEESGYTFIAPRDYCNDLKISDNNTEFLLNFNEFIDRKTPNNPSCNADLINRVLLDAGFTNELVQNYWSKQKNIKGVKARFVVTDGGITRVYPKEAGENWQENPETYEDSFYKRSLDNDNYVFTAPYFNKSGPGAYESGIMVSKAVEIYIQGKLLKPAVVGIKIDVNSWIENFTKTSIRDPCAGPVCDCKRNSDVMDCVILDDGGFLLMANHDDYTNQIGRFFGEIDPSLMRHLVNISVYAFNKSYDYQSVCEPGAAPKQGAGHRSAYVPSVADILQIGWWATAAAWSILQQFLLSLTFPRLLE
T2 sequence (P54289 957-1103 partner limits assumed): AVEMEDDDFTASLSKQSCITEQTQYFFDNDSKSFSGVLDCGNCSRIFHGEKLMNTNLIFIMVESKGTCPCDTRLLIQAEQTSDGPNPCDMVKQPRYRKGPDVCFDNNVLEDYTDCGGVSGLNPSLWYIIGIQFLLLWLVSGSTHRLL

IC50 [1] [µM]	IC50 [2] [µM]	IC50 [3] [µM]	Structure (SMILES)
2 to 10	2 to 10	> 10	COc1cccc(N(C(=O)c2cnc(N3CCCCC3)nc2-c2ccccc2F)C2CCCCC2)c1 [compound 127]
2 to 10	2 to 10	> 10	O=C(c1cnc(N2CCOCC2)nc1-c1ccccc1F)N(Cc1ccc(F)cc1)C1CC1 [compound 128]
> 10	> 10	> 10	CN1CCN(c2ncc(C(=O)N(Cc3ccccc3)C3CC3)c(-c3ccccc3F)n2)CC1 [compound 129]
2 to 10	2 to 10	> 10	CC(C)N(Cc1ccccc1)C(=O)c1cnc(N2Cc3ccccc3C2)nc1-c1ccccc1F [compound 130]
2 to 10	< 2	2 to 10	COc1cccc(CN(C(=O)c2cnc(N3CCSCC3)nc2-c2ccccc2F)C(C)C)c1 [compound 131]
> 10	> 10	> 10	CC(C)N(Cc1ccccc1)C(=O)c1cnc(Nc2cccc(O)c2)nc1-c1ccccc1F [compound 132]
2 to 10	2 to 10	> 10	COc1cccc(N(C(=O)c2cnc(N3CCCCC3)nc2-c2ccccc2F)C(C)C)c1 [compound 133]
2 to 10	< 2	> 10	COc1cccc(CN(C(=O)c2cnc(N3Cc4ccccc4C3)nc2-c2ccccc2F)C(C)C)c1 [compound 134]
> 10	2 to 10	> 10	CC(C)N(Cc1ccccc1)C(=O)c1cnc(NCc2cccc3ccccc23)nc1-c1ccccc1F [compound 135]
2 to 10	2 to 10	> 10	O=C(c1cnc(N2CCCCC2)nc1-c1ccccc1F)N(Cc1ccccc1)C1CCCC1 [compound 136]
> 10	< 2	> 10	CC(C)N(Cc1ccc(N2CCCC2)cc1)C(=O)c1cnc(N2CCC3CCCCC3C2)nc1-c1ccccc1F (stereo not drawn) [compound 137]
> 10	> 10	> 10	O=C(c1cnc(N2CCOCC2)nc1-c1ccccc1F)N(Cc1cccnc1)C1CC1 [compound 138]
2 to 10	2 to 10	2 to 10	CC(C)N(Cc1ccccc1)C(=O)c1cnc(N2CCOCC2)nc1-c1cc(F)cc(F)c1 [compound 139]
2 to 10	2 to 10	> 10	CC(C)N(C(=O)c1cnc(N2CCCCC2)nc1-c1ccccc1F)c1cccc([N+](=O)[O-])c1 [compound 140]
> 10	2 to 10	> 10	CC(C)N(C(=O)c1cnc(N2CCC3CCCCC3C2)nc1-c1ccccc1F)C1CCSC1 (stereo not drawn) [compound 141]
< 2	< 2	< 2	COc1ccc(CN(C(=O)c2cnc(N3CCOCC3)nc2-c2ccccc2F)C2CC2)cc1 [compound 142]
2 to 10	2 to 10	2 to 10	Cc1nc(N2CCOCC2)nc(-c2ccccc2F)c1C(=O)N(Cc1ccccc1)C1CCCC1 [compound 143]
> 10	> 10	> 10	COc1cc2c(cc1OC)CN(C(=O)c1cnc(N3CCOCC3)nc1-c1ccccc1F)CC2 [compound 144]
2 to 10	2 to 10	> 10	Cc1nc(N2CCOCC2)nc(-c2ccccc2F)c1C(=O)N(Cc1ccccc1)C1CC1 [compound 145]
2 to 10	2 to 10	2 to 10	CC(C)N(Cc1ccc2c(c1)OCO2)C(=O)c1cnc(N2CCCCC2)nc1-c1ccccc1Cl [compound 146]
> 10	2 to 10	> 10	CN1CCN(c2ncc(C(=O)N(Cc3ccccc3)C3CCCCC3)c(-c3ccccc3F)n2)CC1 [compound 147]
> 10	2 to 10	> 10	CN1CCN(c2ncc(C(=O)N(Cc3ccccc3)C3CCCC3)c(-c3ccccc3F)n2)CC1 [compound 148]
